Measurements: patent publication US20100216724A1, “USE OF F[…] (196-203 ) AS A […] AGENT” (priority 2007, published 2010)
Where no end group is shown, it is not given here.

Legend:
HIV-1IIIB = experiment: HIV-1 antiviral assay (CPE reduction, MTS) in CEM-SS cells; type: cell-based; conditions: test peptide 10 micrograms per ml, 6 days post-infection
[1] = Cytotoxicity (MTS cell viability) in the HIV-1 assay; conditions: human, CEM-SS cells
[2] = Cytotoxicity testing (CellTiter 96) in MRC-5 cells; type: cell-based; conditions: human, MRC-5 cells (human embryonal lung fibroblasts), 6 days incubation, read-out: % Cell viability
Procedure: Ganciclovir was used as positive control. […] For cytotxicity testing, MRC-5 cells were seeded at 2,500 cells/well in 96 well plates using growth medium. […] The following day, peptide were added and tested in duplicates. After a 6 days incubation period, cell viability was measured using CellTiter 96 Solution (Promega). Plates were incubated for additional 4 hours at 37° C.

Pseudomonas aeruginosa = Pseudomonas aeruginosa assay; type: cell-based; conditions: Pseudomonas aeruginosa growth; peptide 10 micrograms per ml; read visually
in vitro = conditions: human, HepG2-2.2.15 cells
MRSA = MRSA growth; peptide 10 micrograms per ml; read visually
Streptococcus pneumoniae = Streptococcus pneumoniae assay; type: cell-based; conditions: Streptococcus pneumoniae growth; peptide 10 micrograms per ml; read visually

Compound | % CPE reduction in HIV-1 infected CEM-SS cells (HIV-1IIIB) [%] | viability at 10 micrograms per ml [1] [%] | viability at 144 h [2] [%] | % inhibition (Pseudomonas aeruginosa) [%] | viability at 144 h, 10 micrograms per ml (in vitro) [%] | % inhibition (MRSA) [%] | % inhibition (Streptococcus pneumoniae) [%]
Cc1cn([C@H]2C[C@H](N=[N+]=[N-])[C@@H](CO)O2)c(=O)[nH]c1=O [AZT] | 99 | – | – | – | – | – | –
SRNRCNDQ-NH2 | – | 100 | 100 | 0.0 | 100 | 0.0 | 0.0
